{"source": "patent US9737493B2", "about": "“Compositions and methods for modulating DNMT1 inhibitor activity” (University of Louisville Research Foundation, Inc., priority 2012, dated 2017)", "key": {"recombinant human DNMT1": {"molecular_target": "recombinant human DNMT1 (Homo sapiens, UniProt P26358)", "sequence (P26358 whole entry)": "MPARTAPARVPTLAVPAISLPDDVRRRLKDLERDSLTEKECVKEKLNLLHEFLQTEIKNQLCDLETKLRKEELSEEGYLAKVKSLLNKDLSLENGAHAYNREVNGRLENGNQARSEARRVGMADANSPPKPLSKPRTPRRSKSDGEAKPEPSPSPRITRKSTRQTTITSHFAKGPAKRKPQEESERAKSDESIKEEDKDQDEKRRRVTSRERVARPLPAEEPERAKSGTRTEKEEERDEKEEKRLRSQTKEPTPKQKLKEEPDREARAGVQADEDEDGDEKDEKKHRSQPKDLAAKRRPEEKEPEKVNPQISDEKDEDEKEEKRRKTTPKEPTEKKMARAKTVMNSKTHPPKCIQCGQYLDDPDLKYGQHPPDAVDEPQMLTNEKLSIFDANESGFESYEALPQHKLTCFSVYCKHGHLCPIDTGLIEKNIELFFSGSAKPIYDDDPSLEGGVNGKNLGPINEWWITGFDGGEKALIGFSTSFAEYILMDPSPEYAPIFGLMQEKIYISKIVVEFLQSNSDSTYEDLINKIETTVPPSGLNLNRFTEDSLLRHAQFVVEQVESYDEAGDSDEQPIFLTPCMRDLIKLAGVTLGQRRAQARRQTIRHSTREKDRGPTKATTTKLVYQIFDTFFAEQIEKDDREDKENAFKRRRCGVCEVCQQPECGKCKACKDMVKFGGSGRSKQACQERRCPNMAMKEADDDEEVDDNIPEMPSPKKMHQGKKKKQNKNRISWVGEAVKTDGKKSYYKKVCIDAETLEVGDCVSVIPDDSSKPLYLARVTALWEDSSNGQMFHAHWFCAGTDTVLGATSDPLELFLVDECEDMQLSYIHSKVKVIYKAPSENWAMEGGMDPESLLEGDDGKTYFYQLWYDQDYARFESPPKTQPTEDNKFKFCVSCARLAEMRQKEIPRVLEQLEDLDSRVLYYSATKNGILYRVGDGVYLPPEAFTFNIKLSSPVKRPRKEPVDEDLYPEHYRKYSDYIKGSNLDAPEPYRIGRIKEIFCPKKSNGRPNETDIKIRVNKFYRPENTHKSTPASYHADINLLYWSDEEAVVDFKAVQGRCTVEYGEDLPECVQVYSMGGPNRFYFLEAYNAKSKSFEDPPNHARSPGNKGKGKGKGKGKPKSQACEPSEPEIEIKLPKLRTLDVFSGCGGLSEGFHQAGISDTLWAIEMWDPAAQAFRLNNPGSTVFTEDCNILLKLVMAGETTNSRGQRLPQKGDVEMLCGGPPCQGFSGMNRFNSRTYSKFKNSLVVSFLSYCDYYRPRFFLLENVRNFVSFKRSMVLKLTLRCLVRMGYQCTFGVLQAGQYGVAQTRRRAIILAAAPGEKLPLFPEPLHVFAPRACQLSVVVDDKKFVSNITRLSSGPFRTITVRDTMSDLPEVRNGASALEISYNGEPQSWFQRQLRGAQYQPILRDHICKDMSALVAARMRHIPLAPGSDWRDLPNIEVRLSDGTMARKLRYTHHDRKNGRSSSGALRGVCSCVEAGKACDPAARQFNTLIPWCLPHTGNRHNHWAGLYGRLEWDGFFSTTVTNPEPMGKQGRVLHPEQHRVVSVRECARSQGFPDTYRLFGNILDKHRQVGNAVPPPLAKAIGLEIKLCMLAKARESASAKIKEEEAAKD", "assay": "DNMT1 activity assay", "assay_type": "biochemical", "conditions": "recombinant human DNMT1 or nuclear extracts from treated cells", "text": "The assays use recombinant Human DNMT1 (FIG. 19A) or nuclear extracts prepared from cells treated with XB05 (BX11) or 5-Aza (5-azacytidine) (FIG. 19B)."}, "U937 cells [1]": {"tested_on": "U937 cells", "assay": "Carboxy-H2DCFDA ROS detection, flow cytometry", "assay_type": "cell-based, human", "conditions": "U937, 1 μM, 8 h", "procedure": "(§1) FIG. 7: XB05 Induces ROS. (A) Cells were treated with either vehicle, tert-butyl hydrogen peroxide (TBHP, 100 μM, 3 h) or XB05 (8 h with 1 μM for U937 and Hs27, or 2 μM for A549), then stained with carboxy-H2DCFDA and PI for analysis by flow cytometry. Histograms illustrate representative data and bar graphs show the increase (over vehicle control) in the percentage of PI-negative (viable) cells with positive DCF fluorescence in each sample. Bars represent the mean+/−SEM from three independent experiments. […] (B) Cells were treated with XB05 as described in part A. As a positive control for superoxide production, cells were treated with Antimycin A (10 μM) for 1 h. Cells were harvested and subjected to MitoSOX™ Red staining for analysis by flow cytometry as described in Methods. Histograms illustrate representative data and bar graphs show the mean+/−SEM for three independent experiments.\n(§2) Flow Cytometric Assays. Analyses were performed using a FACScalibur flow cytometer (BD Biosciences, Mountain View, Calif.) and FlowJo software (Tree Star, Inc., Ashland, Oreg.). Cells were treated as indicated in the figures and in the Brief Description of the Drawings. Cells were harvested by using TrypLE Cell Dissociation Reagent (Life Technologies). For cell death analyses, cells (adherent and detached cells) were stained with annexin-V-FITC and propidium iodide (PI) using the Apoptosis Detection Kit (BD Biosciences, San Jose, Calif.), according to the manufacturer's instructions. For cell-cycle distribution, cells were fixed, and stained with PI using the Cycle Test Plus kit (Becton Dickinson, Franklin Lakes, N.J.). For detection of γ-H2AX, cells were washed with PBS and fixed in 4% paraformaldehyde in PBS for 10 min at 37° C. Cells were then permeabilized in 90% methanol for 30 min on ice, blocked in 2% BSA (w/v in PBS) for 1 h, and incubated with γ-H2AX antibody or rabbit IgG isotype control (Santa Cruz, sc-2027) (0.3 μg/mL in 1% BSA) for 1 h. […] Cells were then washed twice with PBS, re-suspended at a density of 1×10^6 cells/mL in PBS and analyzed by flow cytometry."}, "A549 cells [2]": {"tested_on": "A549 cells", "assay": "Carboxy-H2DCFDA ROS detection, flow cytometry", "assay_type": "cell-based, human", "conditions": "A549, 2 μM, 8 h", "procedure": "as §1, §2"}, "Hs27 cells [3]": {"tested_on": "Hs27 cells", "assay": "Carboxy-H2DCFDA ROS detection, flow cytometry", "assay_type": "cell-based, human", "conditions": "Hs27, 1 μM, 8 h", "procedure": "as §1, §2"}, "U937 cells [4]": {"tested_on": "U937 cells", "assay": "Western blot for Nrf2 in nuclear extracts", "assay_type": "cell-based, human", "conditions": "U937, 1 μM, 8 or 24 h", "procedure": "(§3) FIG. 8: XB05 Modulates Cellular Stress Responses. (A) A luminescence-based assay for reduced glutathione (GSH) content in cells treated 24 h with XB05 (1 μM for U937 and Hs27, or 2 μM for A549), in the absence or presence of 5 mM GSH. Some cells were treated with buthionine sulfoximine (BSO, 200 μM) plus diethyl maleate (DEM, 1 mM) for 3 h as a positive control for GSH depletion. Bar graph indicates mean+/−SEM from three independent experiments. […] (C) Western blot for Nrf2 in nuclear extracts from cells treated as in part A for either 8 h or 24 h. Membranes were stripped and reprobed for Ku-70 as a loading control. (D) Western blot for phospho-eIF2α (Ser51), total eIF2-α, BiP/Grp78, and GAPDH (loading control) in whole cell extracts from cell lines treated as indicated for 24 h with concentrations of XB05 described in part A. Thapsigargin (TG, 2 μM) was used as a positive control for induction of endoplasmic reticulum (ER) stress.\n(§4) Cell Extracts. […] Nuclear cells extracts were isolated using the NE-PER Nuclear and Cytoplasmic Extraction Kit (Thermo Scientific, Rockford, Ill.), per the manufacturer's protocol. For total cell extract, cells were lysed in RIPA buffer (Thermo Scientific) containing protease inhibitor cocktail III and phosphatase inhibitor cocktail (Calbiochem, Billerica, Mass.) for 5 min at 4° C., and then cleared by centrifugation at 16,000 g for 10 min at 4° C. All protein concentrations were determined using the DC Protein Assay™ kit (BioRad, Hercules, Calif.).\n(§5) Western Blotting. […] Proteins were detected using the following primary antibody concentrations: PARP-1 (1:1000), cleaved caspase-3 (1:1000), γ-H2AX (Ser139) ([…]), phospho-eIF2α (Ser51) (1:1000), eIF2α (1:1000), Bip (1:1000), Nrf2 (1:1000), Ku-70 (1:1000) and GAPDH (1:1000). […] Where indicated, band intensities were quantified using the UN-SCAN-IT Gel digitizing software (Silk Scientific, Orem Utah) and normalized to vehicle control."}, "A549 cells [5]": {"tested_on": "A549 cells", "assay": "Western blot for Nrf2 in nuclear extracts", "assay_type": "cell-based, human", "conditions": "A549, 2 μM, 8 or 24 h", "procedure": "as §3, §4, §5"}, "Hs27 cells [6]": {"tested_on": "Hs27 cells", "assay": "Western blot for Nrf2 in nuclear extracts", "assay_type": "cell-based, human", "conditions": "Hs27, 1 μM, 8 or 24 h", "procedure": "as §3, §4, §5"}}, "data": [{"smiles": "CCCCCC(O)C#CC(F)(F)Br", "note": "(stereo not shown) [XB05]", "values": [{"measurement": "effect on DNMT1 activity", "setting": "recombinant human DNMT1", "value": "inhibitory effects"}, {"measurement": "levels of ROS (DCF-positive viable cells)", "setting": "U937 cells [1]", "value": "elevated"}, {"measurement": "levels of ROS (DCF-positive viable cells)", "setting": "A549 cells [2]", "value": "elevated"}, {"measurement": "levels of ROS (DCF-positive viable cells)", "setting": "Hs27 cells [3]", "value": "elevated"}, {"measurement": "nuclear Nrf2", "setting": "U937 cells [4]", "value": "decrease in nuclear Nrf2"}, {"measurement": "nuclear Nrf2", "setting": "A549 cells [5]", "value": "slight increase in nuclear levels of Nrf2"}, {"measurement": "nuclear Nrf2", "setting": "Hs27 cells [6]", "value": "no change"}]}]}
